In this test the target is Coagulation factor XI (Homo sapiens, UniProt P03951). The experiment in a line: Enzyme Activity Assay: Human Factor XIa (Haematologic Technologies Inc.) activity was measured at an enzyme concentration of 0.1 U/mL in 150 mM NaCl, 5 mM KCl, 1 mg/mL PEG6000, 50 mM HEPES-NaOH (pH7.4) with 300 μM S-2366 (pyroGlu-Pro-Arg-pNA, Chromogenix).

Structures are written as SMILES.

Coagulation factor XI, sequence (P03951 19-387 limits assumed): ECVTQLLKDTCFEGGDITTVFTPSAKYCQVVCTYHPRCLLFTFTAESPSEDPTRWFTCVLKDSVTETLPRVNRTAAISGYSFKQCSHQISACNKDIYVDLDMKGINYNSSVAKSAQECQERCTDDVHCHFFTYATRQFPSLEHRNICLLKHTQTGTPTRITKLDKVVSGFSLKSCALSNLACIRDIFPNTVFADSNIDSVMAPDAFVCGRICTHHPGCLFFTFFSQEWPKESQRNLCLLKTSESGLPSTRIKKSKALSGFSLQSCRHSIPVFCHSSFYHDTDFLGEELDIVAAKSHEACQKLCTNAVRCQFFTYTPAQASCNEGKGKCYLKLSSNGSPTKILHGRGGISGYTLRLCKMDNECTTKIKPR
Coagulation factor XI, sequence (P03951 388-625 limits assumed): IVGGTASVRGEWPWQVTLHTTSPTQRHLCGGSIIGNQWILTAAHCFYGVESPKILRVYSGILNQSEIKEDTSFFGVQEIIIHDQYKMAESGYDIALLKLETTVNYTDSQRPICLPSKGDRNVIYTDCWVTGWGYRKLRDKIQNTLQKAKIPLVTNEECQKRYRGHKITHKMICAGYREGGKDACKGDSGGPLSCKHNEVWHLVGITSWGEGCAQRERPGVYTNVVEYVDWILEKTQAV

A word on the IC50: it is the concentration that gives 50% inhibition. High values mean lower potency, low ones higher potency. Take `COC(=O)Nc1ccc(-c2[nH]c([C@H](C)NC(=O)/C=C/c3cc(Cl)ccc3-n3cnnn3)nc2Cl)cc1`: 0.04 µM corresponded to half-maximal inhibition (IC50).
In the case of `COC(=O)Nc1ccc(-c2[nH]c(CNC(=O)/C=C/c3cc(Cl)ccc3-n3cnnn3)nc2Cl)cc1` it was 0.13 µM.

These data come from ChEMBL document CHEMBL5726331, “Pyridinone and pyrimidinone derivatives as factor Xia” (2017).
